According to patent publication US4886791A, “Soluble derivatives of silybin, a method of preparing them, and pharmaceutical compositions containing them” (priority 1987, dated 1989):
Counter-ions that a name gives are not always drawn. Like-named read-outs stand apart in the source and are kept apart here.

Columns and labels:
[1] = system: mice subjected to hypobaric anoxia; assay: Hypobaric anoxia: protective effect on survival time of mice subjected to hypoxia (i.p.); format: in vivo, mouse; details: for ED50: Mus musculus, ip
Text: Table 5 gives data showing the effect of compound Ia on the survival time of mice subjected to hypobaric anoxia. In this test (M. Nakanishi et al., Life Sciences, 13, 467, 1973), compound Ia was intraperitoneally injected half an hour before the anoxia.

[2] = system: liver poisoning by praseodymium; assay: Antihepatotoxic activity, praseodymium test on the rat (i.v. administration); format: in vivo
Text: (§1) In order to test its pharmacological activity, compound (Ia) has been administered intravenously and orally in liver poisoning tests, such as the praseodymium poisoning test on the rat and the phalloidine poisoning test on the mouse, both tests being widely described in the literature for use in studying the antihepatotoxic effect of silymarin and silybin (Vogel, in "Studies in Organic Chemistry, Vol. 11, Flavonoids and Bioflavonoids, page 461, Elsevier 1982).
Silybin 11-phosphate was intravenously administered one hour before the praseodymium (10 mg/kg i.v.).

[3] = Anti-radical activity in vitro, free radical scavenging (DPPH method); details: for IC50: DPPH method
Description: The anti-radical activity of compound Ia was measured "in vitro" by testing the disappearance of the free 1,1-diphenyl-2-picrylhydrazyl (DPPH) radical (J. Pincemail et al., Stud. Org. Chem. 23, 423, 1985).

[4] = system: liver poisoning by praseodymium; assay: Antihepatotoxic activity, praseodymium test on the rat (oral administration); format: in vivo
Text: as §1

[5] = system: poisoning with phalloidine; assay: Antihepatotoxic activity, mouse poisoned with phalloidine (i.v. administration); format: in vivo; details: for Death Rate: 10 animals/group
Text: as §1
Silybin dihemisuccinate, when tested at a dose equal to 1/13 of the LD50 i.v. in the mouse, protected only 60% of the mice from death by phalloidine (Table 4).

Acute toxicity, rat = details: in vivo, iv
Acute toxicity, mouse = details: in vivo, iv
Mouse = details: i.v., A. Desplaces et al., 1975; cited from earlier work
Rat = details: i.v., A. Desplaces et al., 1975; cited from earlier work
[6] = corresponds to mg/kg silybin, read-out: Survival Time ED50, corresponding silybin dose
[7] = half an hour before the anoxia, read-out: Survival Time ED50 (confidence limits p = 0.95)
[8] = corresponds to μM silybin, read-out: IC50, corresponding silybin concentration
[9] = read-out: IC50 (confidence limits p = 0.95)
[10] = rat, simultaneously with praseodymium

Q: Which “Activity in prolonging the survival time” value [1] does the source give for `COc1cc(C2Oc3cc(C4Oc5cc(O)cc(O)c5C(=O)C4O)ccc3OC2COP(=O)(O)O)ccc1O` (stereo not drawn) [Silybin 11-phosphate (Ia), Silybin 11-phosphate] here?
A: active in prolonging the survival time

Q: What about the “Activity in prolonging the survival time compared with succinylsilybin” value [1] of the same molecule?
A: significantly more active than succinylsilybin

Q: And the ED50 [1, 6]?
A: 36.3 mg/kg

Q: What about the ED50 [1, 7] of the same molecule?
A: 45.7 mg/kg

Q: What about the “Pharmacological activity compared with silybin dihemisuccinate” value ([2]; intravenous, liver poisoning tests (praseodymium rat, phalloidine mouse)) of the same molecule?
A: much higher pharmacological activity than silybin dihemisuccinate

Q: And the “ALAT, percentage variation relative to the praseodymium group” value ([2]; rat, i.v., 6.32 mg/kg)?
A: -71%

Q: And the “ASAT, percentage variation relative to the praseodymium group” value ([2]; rat, i.v., 6.32 mg/kg)?
A: -54%

Q: What about the “Liver Wt, m ± s.e.” value ([2]; rat, i.v., 6.32 mg/kg) of the same molecule?
A: 12.6 ± 0.5 g

Q: What about the “Liver Wt, percentage variation relative to the praseodymium group” value ([2]; rat, i.v., 6.32 mg/kg) of the same molecule?
A: -10%

Q: What about the “Liver triglycerides, m ± s.e.” value ([2]; rat, i.v., 6.32 mg/kg) of the same molecule?
A: 4792.4 ± 1068.8

Q: What about the “Liver triglycerides, percentage variation relative to the praseodymium group” value ([2]; rat, i.v., 6.32 mg/kg) of the same molecule?
A: -41%

Q: What about the “Serum enzymes ALAT, m ± s.e.” value ([2]; rat, i.v., 6.32 mg/kg) of the same molecule?
A: 495.0 ± 244.6 U/L

Q: What about the “Serum enzymes ASAT, m ± s.e.” value ([2]; rat, i.v., 6.32 mg/kg, 1 h before praseodymium 10 mg/kg i.v.) of the same molecule?
A: 877.0 ± 420.5 U/L

Q: And the “ALAT, percentage variation relative to the praseodymium group” value ([2]; rat, i.v., 15.8 mg/kg)?
A: -97%

Q: And the “ASAT, percentage variation relative to the praseodymium group” value ([2]; rat, i.v., 15.8 mg/kg)?
A: -95%

Q: What about the “Liver Wt, m ± s.e.” value ([2]; rat, i.v., 15.8 mg/kg) of the same molecule?
A: 8.7 ± 0.2 g

Q: And the “Liver Wt, percentage variation relative to the praseodymium group” value ([2]; rat, i.v., 15.8 mg/kg)?
A: -30%

Q: What about the “Liver triglycerides, m ± s.e.” value ([2]; rat, i.v., 15.8 mg/kg) of the same molecule?
A: 672.7 ± 100.5

Q: And the “Liver triglycerides, percentage variation relative to the praseodymium group” value ([2]; rat, i.v., 15.8 mg/kg)?
A: -92%

Q: What about the “Serum enzymes ALAT, m ± s.e.” value ([2]; rat, i.v., 15.8 mg/kg) of the same molecule?
A: 31.3 ± 3.2 U/L

Q: What about the “Serum enzymes ASAT, m ± s.e.” value ([2]; rat, i.v., 15.8 mg/kg) of the same molecule?
A: 90.9 ± 8.9 U/L

Q: And the “Effect on praseodymium-induced increases” value ([2]; rat, i.v., dose equal to 1/26 of the LD50)?
A: inhibited the increase in activity of the two serum transaminases and the increase in the weight of the liver and the hepatic triglycerides

Q: What about the “Activity in the praseodymium test” value ([2]; rat, i.v., dose of 1/65 of the LD50) of the same molecule?
A: Activity was maintained

Q: And the IC50 [3, 8]?
A: 85 µM

Q: And the IC50 [3, 9]?
A: 107 µM

Q: And the “Activity in destroying free radicals” value ([3]; in vitro, DPPH)?
A: significantly active in destroying free radicals

Q: And the “Anti-radical activity relative to silybin or succinylsilybin” value ([3]; more active than either silybin or succinylsilybin)?
A: about 3.5 times

Q: And the “Antihepatotoxic activity compared with silybin” value [4]?
A: greater than that of silybin

Q: And the “ALAT, percentage variation relative to the praseodymium group” value ([4]; rat, 315 mg/kg)?
A: -78%

Q: What about the “ASAT, percentage variation relative to the praseodymium group” value ([4]; rat, 315 mg/kg) of the same molecule?
A: -75%

Q: What about the “Serum enzymes ALAT, m ± s.e.” value ([4]; rat, 315 mg/kg) of the same molecule?
A: 783.3 ± 304.6 U/L

Q: And the “Serum enzymes ASAT, m ± s.e.” value ([4]; rat, 315 mg/kg, simultaneously with praseodymium)?
A: 931.7 ± 299.0 U/L

Q: And the “Activity in counteracting the increase in the two serum transaminases compared with silybin” value [4, 10]?
A: considerably more active than silybin alone

Q: And the “Activity in counteracting the increase in the two serum transaminases compared with silybin dihemisuccinate” value [4, 10]?
A: as active as silybin dihemisuccinate

Q: And the “Activity compared with silybin dihemisuccinate in the phalloidine test” value ([5]; 63 and 126 mg/kg i.v.)?
A: markedly superior to silybin dihemisuccinate

Q: What about the Percentage of deaths ([5]; i.v., 15.8 mg/kg) of the same molecule?
A: 0%

Q: What about the “Death Rate” value ([5]; i.v., 15.8 mg/kg, 1 h before phalloidine 3 mg/kg i.p.) of the same molecule?
A: 0

Q: And the “Protection from death by phalloidine” value ([5]; i.v., dose equal to 1/15 of the LD50 i.v.)?
A: protected all the mice from death

Q: For `COc1cc(C2Oc3cc(C4Oc5cc(O)cc(O)c5C(=O)C4O)ccc3OC2COP(=O)(O)O)ccc1O` (stereo not drawn) [Silybin 11-phosphate (Ia, sodium salt), sodium salt of silybin 11-phosphate], which LD50 (Acute toxicity, rat) is on record?
A: 415 mg/kg

Q: And the LD50 (Acute toxicity, mouse)?
A: 235 mg/kg

Q: With `COc1cc(C2Oc3cc(C4Oc5cc(O)cc(O)c5C(=O)C4OC(=O)CCC(=O)O)ccc3OC2COC(=O)CCC(=O)O)ccc1O` (stereo not drawn) [Silybin dihemisuccinate, silybin dihemisuccinate] as the molecule, how does the ED50 [1, 6] read?
A: 97.3 mg/kg

Q: What about the ED50 [1, 7] of the same molecule?
A: 108 mg/kg

Q: And the “ALAT, percentage variation relative to the praseodymium group” value ([2]; rat, i.v., 7.5 mg/kg)?
A: -21%

Q: What about the “ASAT, percentage variation relative to the praseodymium group” value ([2]; rat, i.v., 7.5 mg/kg) of the same molecule?
A: -11%

Q: What about the “Liver Wt, m ± s.e.” value ([2]; rat, i.v., 7.5 mg/kg) of the same molecule?
A: 12.6 ± 0.5 g

Q: And the “Liver Wt, percentage variation relative to the praseodymium group” value ([2]; rat, i.v., 7.5 mg/kg)?
A: -3%

Q: And the “Liver triglycerides, m ± s.e.” value ([2]; rat, i.v., 7.5 mg/kg)?
A: 6692.8 ± 738.3

Q: What about the “Liver triglycerides, percentage variation relative to the praseodymium group” value ([2]; rat, i.v., 7.5 mg/kg) of the same molecule?
A: -18%

Q: And the “Serum enzymes ALAT, m ± s.e.” value ([2]; rat, i.v., 7.5 mg/kg)?
A: 1366. ± 343.1 U/L

Q: What about the “Serum enzymes ASAT, m ± s.e.” value ([2]; rat, i.v., 7.5 mg/kg) of the same molecule?
A: 1672.0 ± 292.8 U/L

Q: What about the “ALAT, percentage variation relative to the praseodymium group” value ([2]; rat, i.v., 37.5 mg/kg) of the same molecule?
A: +64%

Q: And the “ASAT, percentage variation relative to the praseodymium group” value ([2]; rat, i.v., 37.5 mg/kg)?
A: +38%

Q: And the “Liver Wt, m ± s.e.” value ([2]; rat, i.v., 37.5 mg/kg)?
A: 12.6 ± 0.4 g

Q: What about the “Liver Wt, percentage variation relative to the praseodymium group” value ([2]; rat, i.v., 37.5 mg/kg) of the same molecule?
A: +1%

Q: And the “Liver triglycerides, m ± s.e.” value ([2]; rat, i.v., 37.5 mg/kg)?
A: 7083.9 ± 747.5

Q: And the “Liver triglycerides, percentage variation relative to the praseodymium group” value ([2]; rat, i.v., 37.5 mg/kg)?
A: -19%

Q: What about the “Serum enzymes ALAT, m ± s.e.” value ([2]; rat, i.v., 37.5 mg/kg) of the same molecule?
A: 1988.3 ± 465.3 U/L

Q: And the “Serum enzymes ASAT, m ± s.e.” value ([2]; rat, i.v., 37.5 mg/kg)?
A: 2600.0 ± 570.9 U/L

Q: And the “ALAT, percentage variation relative to the praseodymium group” value ([2]; rat, i.v., 75 mg/kg)?
A: -65%

Q: What about the “ASAT, percentage variation relative to the praseodymium group” value ([2]; rat, i.v., 75 mg/kg) of the same molecule?
A: -53%

Q: And the “Liver Wt, m ± s.e.” value ([2]; rat, i.v., 75 mg/kg)?
A: 12.1 ± 0.5 g

Q: What about the “Liver Wt, percentage variation relative to the praseodymium group” value ([2]; rat, i.v., 75 mg/kg) of the same molecule?
A: -1%

Q: What about the “Liver triglycerides, m ± s.e.” value ([2]; rat, i.v., 75 mg/kg) of the same molecule?
A: 9221.0 ± 910.4

Q: And the “Liver triglycerides, percentage variation relative to the praseodymium group” value ([2]; rat, i.v., 75 mg/kg)?
A: +11%

Q: What about the “Serum enzymes ALAT, m ± s.e.” value ([2]; rat, i.v., 75 mg/kg) of the same molecule?
A: 422.9 ± 85.6 U/L

Q: And the “Serum enzymes ASAT, m ± s.e.” value ([2]; rat, i.v., 75 mg/kg)?
A: 887.0 ± 63.1 U/L

Q: What about the “Activity in the praseodymium test” value ([2]; rat, i.v., lower doses comparable with those of compound (Ia)) of the same molecule?
A: no activity

Q: And the “Dose for preventing praseodymium poisoning” value ([2]; rat, i.v., LD50 reported in the literature)?
A: 1/12

Q: What about the IC50 [3, 8] of the same molecule?
A: 322 µM

Q: And the IC50 [3, 9]?
A: 565 µM

Q: What about the LD50 (Mouse) of the same molecule?
A: 970(1) (931-1010) mg/kg

Q: And the “ALAT, percentage variation relative to the praseodymium group” value ([4]; rat, 375 mg/kg)?
A: -75%

Q: And the “ASAT, percentage variation relative to the praseodymium group” value ([4]; rat, 375 mg/kg)?
A: -70%

Q: And the “Serum enzymes ALAT, m ± s.e.” value ([4]; rat, 375 mg/kg)?
A: 886.7 ± 395.1 U/L

Q: And the “Serum enzymes ASAT, m ± s.e.” value ([4]; rat, 375 mg/kg)?
A: 1118.3 ± 512.0 U/L

Q: And the LD50 (Rat)?
A: 920(1) (906-940) mg/kg

Q: What about the Percentage of deaths ([5]; i.v., 75.0 mg/kg) of the same molecule?
A: 40%

Q: And the “Death Rate” value ([5]; i.v., 75.0 mg/kg)?
A: 4

Q: What about the “Mice protected from death by phalloidine” value ([5]; i.v., dose equal to 1/13 of the LD50 i.v.) of the same molecule?
A: 60%

Q: With `COc1cc(C2Oc3cc([C@H]4Oc5cc(O)cc(O)c5C(=O)[C@@H]4O)ccc3OC2CO)ccc1O` (stereo partly drawn) [Silybin, silybin] as the molecule, how does the IC50 [3, 9] read?
A: 327 µM

Q: What about the “ALAT, percentage variation relative to the praseodymium group” value ([4]; rat, 250 mg/kg) of the same molecule?
A: +1%

Q: And the “ASAT, percentage variation relative to the praseodymium group” value ([4]; rat, 250 mg/kg)?
A: -2%

Q: What about the “Serum enzymes ALAT, m ± s.e.” value ([4]; rat, 250 mg/kg) of the same molecule?
A: 3620 ± 795.8 U/L

Q: And the “Serum enzymes ASAT, m ± s.e.” value ([4]; rat, 250 mg/kg)?
A: 3680.2 ± 885.6 U/L
